Experimental data taken from patent US20190092720A1, “FUNCTIONALIZED BENZAMIDE DERIVATIVES AS ANTIVIRAL AGENTS AGAINST HBV INFECTION” (BARUCH S. BLUMBERG INSTITUTE, priority 2012, published 2019).
Where two headings read alike, the source gives them in different places.

How the values were obtained:
HBV capsids = assay: Particle gel assay of nucleocapsids in AML12HBV10 cells; assay type: cell-based, Hepatitis B virus (HBV); conditions: 2 days, FIG. 1 panel B
Method: (§1) FIG. 1. Antiviral mechanism of the compounds of the present invention. AML12HBV10 cells were left untreated (NT) or treated with the indicated concentrations of the compounds of the disclosure Compound 6 and Compound 19, respectively, for 2 days. Bay-4109 (3 µM) or AT-61 (25 µM) served as positive controls. (A) Intracellular viral RNA was determined by Northern blot hybridization. Ribosomal RNA served as a loading control. (B) The total amounts of nucleocapsids were determined by a particle gel assay. (C) Encapsidated pgRNA were extracted and measured by Northern blot. (D) Nucleocapsid-associated HBV DNA was quantified by alkaline-treatment of nucleocapsids on the membrane following the particle gel assay and hybridized with a HBV-specific riboprobe. (E) HBV DNA replication intermediates were extracted and determined by Southern blot hybridizations.
(§2) Procedures of viral capsids and nucleocapsid-associated DNA analysis: AML12HB10 cells were lysed by addition of 300 μl buffer containing 10 mM Tris-HCl (pH7.6), 100 mM NaCl, 1 mM EDTA and 0.1% NP-40 to each well of 12-well plate. Cell debries were removed by centrifugation at 5000 g for 10 minutes. Ten microliters of the clarified cell lysates were fractionated by electrophoresis through nondenaturing 1% agarose gels and transferred to a nitrocellulose filter by blotting with TNE buffer (10 mM Tris-HCl, pH7.6; 150 mM NaCl and 1 mM EDTA). HBV capsids were detected by probing the membrane with an antibody against HBV core protein (DAKO). […] To detect capsid associated HBV DNA, the membrane were treated with buffer containing 0.5N NaOH and 1.5 M NaCl for 5 minutes and followed by neutralization with buffer containing 1 M TRIS-HCl and 1.5M NaCl for 5 minutes. The viral DNA was detected by hybridization with a α-^32P-UTP (800 Ci/mmol, Perkin Elmer) labeled minus strand specific full-length HBV riboprobe (Xu et al.).

encapsidated pgRNA = assay: Encapsidated pgRNA by Northern blot in AML12HBV10 cells; assay type: cell-based, Hepatitis B virus (HBV); conditions: 2 days, FIG. 1 panel C
Method: as §1
Determination of encapsidated pgRNA: AML12HBV10 cells were lysed by addition of 600 μl of lysis buffer (50 mM Tris-HCl [pH 7.5], 1 mM EDTA, 150 mM NaCl, 1% NP-40) into each well of 12-well plates. The nuclei were removed by centrifugation at 5,000 g for 10 minutes. One-half of the sample was mixed with 6 U of micrococcal nuclease (Pharmacia) and 15 μl of 100 mM CaCl2 and incubated for 15 minutes at 37° C. to digest free nucleic acids. The reaction was stopped with 6 μl of 0.5 M EDTA, and capsids were precipitated by adding 125 μl of 35% polyethylene glycol 8000 in 1.75 M NaCl to the reaction and incubating in ice for 30 minutes, followed by centrifugation at 6,000 g for 10 minutes at 4° C. Pellets were re-suspended in 50 μl of TNE buffer (10 mM Tris-HCl [pH 8], 100 mM NaCl, 1 mM EDTA). pgRNA was extracted by the addition of 1 ml of Trizol reagent. The encapsidated pgRNA were electrophoresed through a 2.2 M formaldehyde-1% agarose gel, transferred to a nylon membrane, and immobilized by UV cross-linking (Stratagene). Hybridization was performed with an alpha-^32P-UTP labeled riboprobe specific for plus strand of HBV genome.

[1] = test system: capsid-associated HBV DNA; assay: Capsid-associated HBV DNA and DNA replication intermediates in AML12HBV10 cells; assay type: cell-based, Hepatitis B virus (HBV); conditions: 2 days, FIG. 1 panels D and E
Method: as §1, §2
To analyze the HBV DNA replication intermediates, cells were lysed by adding into each well of the 12-well plates 0.5 ml of lysis buffer containing 10 mM Tris-HCl (pH 8.0), 1 mM EDTA, 1% NP40 and 2% sucrose and incubating at 37° C. for 10 minutes. Cell debris and nuclei were removed by centrifugation and the supernatant was mixed with 130 μl of 35% polyethylene glycol (PEG) 8000 containing 1.5 M NaCl. After 1 hour incubation in ice, viral nucleocapsids were pelleted by centrifugation at 6,000×g for 5 minutes at 4° C., followed by 1 hour digestion at 37° C. in 400 μl of digestion buffer containing 0.5 mg/ml pronase (Calbiochem), 0.5% SDS, 150 mM NaCl, 25 mM Tris-HCl (pH 8.0) and 10 mM EDTA. The digestion mixture was extracted twice with phenol and DNA was precipitated with ethanol, dissolved in TE buffer (10 mM Tris-HCl, pH 8.0; 0.1 mM EDTA). […]

[2] = test system: HBV replication in AML12HBV10 cells; assay: Antiviral efficacy in AML12HBV10 cells (HBV DNA dot-blot hybridization); assay type: cell-based, Hepatitis B virus (HBV)
Method: The HBV replication inhibitors of the present invention are capable of treating and preventing diseases associated with HBV infection.
The antiviral efficacy of the compounds of the disclosure, as presented in Table 1, were determined in AML12HBV10 cells. AML12HBV10 is an immortalized murine hepatocyte (AML12)-derived stable cell line that supports robust HBV replication in a tetracycline inducible manner (Xu et al.). The cells were seeded into 96 well plates at a density of 2×10^4 cells per well and cultured in DMEM/F12 media with 10% fetal bovine serum in the absence of tetracycline to allow pgRNA transcription and HBV DNA replication. One day after seeding, cells were left untreated or treated with a serial dilution of testing compounds, ranging from 50 μM to 0.39 μM, for 48 hours. Cells were then lysed by adding into each well of 100 μl lysis buffer containing 10 mM Tris-HCl (pH 7.6), 1 mM EDTA, 100 mM NaCl and 1% NP-40 and incubated at 37° C. for 30 minutes. Half amount (50 μl) of cell lysate from each well was combined with equal volume of denaturing solution containing 0.5N NaOH and 1.5M NaCl. After 5 minute incubation, 100 µl of neutralization solution (1M Tris-HCl, pH 7.4, 1.5M NaCl) was added into each well. The denatured cell lysates (totally 200 μl) were applied onto Nylon membrane using 96-well dot-blot manifold (Biorad). HBV DNA in the cell lysates were determined by dot-blot hybridization with alpha-^32P-UTP-labelled riboprobe specific for HBV minus strand DNA. The antiviral efficacy of a compound of the disclosure was expressed as the concentration that reduces the amount of HBV DNA by 50% (EC50).

AML12HBV10 cells = assay: Cytotoxicity in AML12HBV10 cells (MTT assay); assay type: cell-based, murine; conditions: concentration that reduces viability by 50%, 48 hours, serial dilution 50 μM to 0.39 μM
Method: (§3) Determination of cytotoxicity of compounds of the disclosure in AML12HBV10 cells: To determine the cytotoxicity of the compounds, AML12HBV10 cells were seeded into 96-well plates at a density of 2×10^4 cells per well and cultured in DMEM/F12 media with 10% fetal bovine serum in the absence of tetracycline to allow pgRNA transcription and HBV DNA replication. One day after seeding, cells were left untreated or treated with a serial dilution of testing compounds, ranging from 50 μM to 0.39 μM, for 48 hours. The cell viability was measured by a MTT assay, following procedure provided by the manufacturer (Promega). The cytotoxicity of a compound was expressed as the concentration of compound that reduces the viability of the cells by 50% (CC50).

[3] = test system: HBV replication in HepDES19 cells; assay: Antiviral activity in HepDES19 cells (core-associated HBV DNA, Southern blot); assay type: cell-based, Hepatitis B virus (HBV); conditions: concentration that reduces core-associated HBV DNA by 50%; 6 days; serial dilution 10 μM to 0.018 μM
From the text: Determination of antiviral activity of compounds of the disclosure, as presented in Table 1, in human hepatoma-derived cell lines: To further confirm the antiviral activity of the compounds of the disclosure against HBV in human hepatocyte-derived cells, HepDES19 cells, a human hepatoma cell line supporting HBV replication in a tetracycline inducible manner (Guo et al., 2007), seeded into 12-well plates at a density of 5×10^5 cells per well and cultured in DMEM/F12 media with 10% fetal bovine serum and 1 μg/ml tetracycline. Two days after seeding, the cells were mock-treated or treated with a serial dilution of compounds of the disclosure, ranging from 10 μM to 0.018 μM, for 6 days in the absence of tetracycline. Upon the completion of treatment, cells were lysed by adding into each well of the 12-well plates 0.5 ml of lysis buffer containing 10 mM Tris-HCl (pH 8.0), 1 mM EDTA, 1% NP40 and 2% sucrose and incubating at 37° C. for 10 minutes. Cell debris and nuclei were removed by centrifugation and the supernatant was mixed with 130 μl of 35% polyethylene glycol (PEG) 8000 containing 1.5 M NaCl. After 1 hour incubation in ice, viral nucleocapsids were pelleted by centrifugation at 6,000×g for 5 min at 4° C., followed by 1 hour digestion at 37° C. in 400 μl of digestion buffer containing 0.5 mg/ml pronase (Calbiochem), 0.5% SDS, 150 mM NaCl, 25 mM Tris-HCl (pH 8.0) and 10 mM EDTA. The digestion mixture was extracted twice with phenol and DNA was precipitated with ethanol, dissolved in TE buffer (10 mM Tris-HCl, pH 8.0; 0.1 mM EDTA). One half of the DNA sample from each well was resolved by electrophoresis into a 1.5% agarose gel. The gel was then subjected to denaturation in a solution containing 0.5 M NaOH and 1.5 M NaCl, followed by neutralization in a buffer containing 1 M Tris-HCl (pH7.4) and 1.5 M NaCl. DNA was then blotted onto Hybond-XL membrane (GE Health care) in 20×SSC buffer. The amounts of cytoplasmic HBV core-associated HBV DNA were determined by Southern blot hybridization and the antiviral efficacy of a compound was expressed as its concentration that reduce the amount of HBV DNA by 50% (EC50) or 90% (EC90).

[4] = Cytotoxicity in AML12HBV10 cells (MTT assay); assay type: cell-based, murine; conditions: mouse, concentration that reduces viability by 50%, serial dilution 50 μM to 0.39 μM
Method: as §3

HBV mRNA = assay: Intracellular viral RNA by Northern blot in AML12HBV10 cells; assay type: cell-based, Hepatitis B virus (HBV); conditions: 2 days, FIG. 1 panel A
Method: as §1
Procedure for analysis of HBV mRNA: Upon the completion of treatment, total cellular RNA was extracted with TRIzol reagents (Invitrogen). Five micrograms of total RNA was resolved in 1.5% agarose gel containing 2.2 M formadelhyde and transferred onto Hybond-XL membrane in 20×SSC buffer. The amounts of HBV mRNA were determined by Northern blot hybridization with an alpha-^32P-UTP labeled riboprobe specific for plus strand of HBV genome.

Structure (SMILES)	capsid formation (HBV capsids)	level of encapsidated pgRNA (encapsidated pgRNA)	capsid-associated HBV DNA / DNA synthesis [1]	EC50 ([2]; read-out: AML12HBV10 EC50, concentration that reduces the amount of HBV DNA by 50%, 48 hours, serial dilution 50 μM to 0.39 μM) [µM]	CC50 (AML12HBV10 cells) [µM]	EC50 [3] [µM]	EC50 ([2]; Hepatitis B virus, AML12HBV10, 48 h, read-out: AML12HBV10 EC50, concentration that reduces the amount of HBV DNA by 50%, serial dilution 50 μM to 0.39 μM) [µM]	CC50 at 48 h [4] [µM]	amount of viral mRNA (HBV mRNA)
O=C(N/C(C(=O)N1CCCCC1)=C(/Cl)c1ccccc1)c1ccccc1 [AT-61, reference compound]	did not affect	dose-dependently reduced	dose-dependently reduced	–	–	–	–	–	–
COC(=O)C1=C(C)NC(c2ncc(F)cc2F)=N[C@H]1c1ccc(F)cc1Cl [Bay41-4109, reference compound]	completely abolished	completely abolished	completely abolished	–	–	–	–	–	–
O=C(Nc1ccccc1)c1scc2c1OCCO2 [Entry 10]	–	–	–	4.48	> 50	8.45	–	–	–
O=C(Nc1cccc(Cl)c1)c1cccc2c1OCCO2 [Entry 19]	did not significantly affect	dose-dependently reduced	reduced encapsidated pgRNA and capsid-associated HBV DNA in a dose-dependent manner	–	–	–	< 0.4	> 50	did not affect
